In article PMC12655637, “Design, Synthesis, and Mechanistic Study of Novel Ciprofloxacin/Thiazole Chalcone Hybrids as Potential Anticancer Agents” (Pharmaceuticals, 2025):

Legend:
T-47D = assay: NCI-60 screening, one-dose (10 µM) and five-dose, SRB; type: cell-based, human; settings: 10 μM, Breast Cancer
UACC-62 = assay: as above; type: cell-based; settings: Homo sapiens; 10 μM; UACC-62, Melanoma; read-out: Growth percentage
UACC-257 = assay: as above; type: cell-based, human; settings: Homo sapiens; 10 μM; UACC-257, Melanoma; read-out: Growth percentage
M14 = assay: as above; type: cell-based, human; settings: Homo sapiens; 10 μM; M14, Melanoma; read-out: Growth percentage
SR = assay: as above; type: cell-based, human; settings: 10 μM, Leukemia
RXF 393 = assay: as above; type: cell-based; settings: Homo sapiens; 10 μM; RXF 393, Renal Cancer; read-out: Growth percentage
HT29 = assay: as above; type: cell-based, human; settings: Homo sapiens, HT-29; 10 μM; HT29, Colon Cancer; read-out: Growth percentage
SW-620 = assay: as above; type: cell-based, human; settings: Homo sapiens; 10 μM; SW-620, Colon Cancer; read-out: Growth percentage
MCF7 = assay: as above; type: cell-based, human; settings: Homo sapiens, MCF7, 10 μM; MCF7, Breast Cancer; read-out: Growth percentage
A549/ATCC = assay: as above; type: cell-based, human; settings: Homo sapiens, 10 μM, Non-Small-Cell Lung Cancer, read-out: Growth percentage
MOLT-4 = assay: as above; type: cell-based, human; settings: Homo sapiens; 10 μM; MOLT-4, Leukemia; read-out: Growth percentage
OVCAR-8 = assay: as above; type: cell-based, human; settings: Homo sapiens; 10 μM; OVCAR-8, Ovarian Cancer; read-out: Growth percentage
SK-OV-3 = assay: as above; type: cell-based, human; settings: Homo sapiens; 10 μM; SK-OV-3, Ovarian Cancer; read-out: Growth percentage
786−0 = assay: as above; type: cell-based, human; settings: Homo sapiens; 10 μM; 786−0, Renal Cancer; read-out: Growth percentage
U251 = assay: as above; type: cell-based, human; settings: Homo sapiens, U-251; 10 μM; U251, CNS Cancer; read-out: Growth percentage
RPMI-8226 = assay: as above; type: cell-based, human; settings: Homo sapiens; for activity at 10 µM: RPMI-8226, 10 μM, RPMI-8226, Leukemia, read-out: Growth percentage
[1] = system: 60 human cancer cell lines; assay: NCI-60 screening, full panel (mean growth, MID a, ranges over all lines); settings: Homo sapiens, read-out: Mean growth percentage
NCI-H23 = assay: NCI-60 screening, one-dose (10 µM) and five-dose, SRB; type: cell-based, human; settings: Homo sapiens; 10 μM; NCI-H23, Non-Small-Cell Lung Cancer; read-out: Growth percentage
NCI-H460 = assay: as above; type: cell-based, human; settings: Homo sapiens, NCI-H460, 10 μM; NCI-H460, Non-Small-Cell Lung Cancer; read-out: Growth percentage
SN12C = assay: as above; type: cell-based, human; settings: Homo sapiens, 10 μM, Renal Cancer, read-out: Growth percentage
NCI/ADR-RES = assay: as above; type: cell-based, human; settings: Homo sapiens, 10 μM, Ovarian Cancer, read-out: Growth percentage
HCT-116 = assay: as above; type: cell-based, human; settings: Homo sapiens; for activity at 10 µM: HCT-116, 10 μM, HCT-116, Colon Cancer, read-out: Growth percentage
MDA-MB-468 = assay: as above; type: cell-based, human; settings: Homo sapiens, MDA-MB-468, 10 μM; MDA-MB-468, Breast Cancer; read-out: Growth percentage
Source text: Control cells Test cells FLD
available usually at NCI library.
An aliquot of frozen drug concentrate is […]

PC-3 = assay: as above; type: cell-based, human; settings: Homo sapiens; 10 μM; PC-3, Prostate Cancer; read-out: Growth percentage
HOP-62 = assay: as above; type: cell-based, human; settings: Homo sapiens, HOP-62, 10 μM; HOP-62, Non-Small-Cell Lung Cancer; read-out: Growth percentage
HL-60(TB) = assay: as above; type: cell-based, human; settings: Homo sapiens; for activity at 10 µM: HL-60, 10 μM, HL-60(TB), Leukemia, read-out: Growth percentage
MALME-3M = assay: as above; type: cell-based, human; settings: 10 μM, Melanoma
IGROV1 = assay: as above; type: cell-based, human; settings: 10 μM; IGROV1, Ovarian Cancer
NCI-H322M = assay: as above; type: cell-based, human; settings: 10 μM, Non-Small-Cell Lung Cancer

Compound | activity at 10 µM (UACC-62) | activity at 10 µM (UACC-257) | activity at 10 µM (M14) | activity at 10 µM (RXF 393) | activity at 10 µM (HT29) | activity at 10 µM (SW-620) | activity at 10 µM (A549/ATCC) | activity at 10 µM (MOLT-4) | activity at 10 µM (OVCAR-8) | activity at 10 µM (SK-OV-3) | activity at 10 µM (786−0) | activity at 10 µM (U251) | activity at 10 µM [1] | activity at 10 µM (NCI-H23) | activity at 10 µM (NCI-H460) | activity at 10 µM (SN12C) | activity at 10 µM (NCI/ADR-RES) | activity at 10 µM (MDA-MB-468) | activity at 10 µM (PC-3) | activity at 10 µM (HOP-62) | further results
Cc1nc(SCC(=O)N2CCN(c3cc4c(cc3F)c(=O)c(C(=O)O)cn4C3CC3)CC2)sc1C(=O)/C=C/c1ccc(N(C)C)cc1 [Compound 4i, (E)-1-Cyclopropyl-7-(4-(2-((5-(3-(4-(dimethylamino)phenyl)acryloyl)-4-methylthiazol-2-yl)thio)acetyl)piperazin-1-yl)-6-fluoro-4-oxo-1,4-dihydroquinoline-3-carboxylic Acid] | 79.9% | 108% | 75.9% | 90.5% | 47.9% | 117% | 103% | 89.2% | 76.5% | 119% | 59.2% | 48% | 83.9% | 76.2% | 108% | 81.1% | 97.1% | 87.6% | 96.7% | 105% | Growth percentage (T-47D): 88.2%; Growth percentage (SR): 64.5%; activity at 10 µM (MCF7): 17.3%; activity at 10 µM (RPMI-8226): 4.7%; activity at 10 µM (HCT-116): 2.6%; activity at 10 µM (HL-60(TB)): 89.5%
COc1ccc(/C=C/C(=O)c2sc(SCC(=O)N3CCN(c4cc5c(cc4F)c(=O)c(C(=O)O)cn5C4CC4)CC3)nc2C)cc1 [Compound 4j, (E)-1-Cyclopropyl-6-fluoro-7-(4-(2-((5-(3-(4-methoxyphenyl)acryloyl)-4-methylthiazol-2-yl)thio)acetyl)piperazin-1-yl)-4-oxo-1,4-dihydroquinoline-3-carboxylic Acid] | 111% | 114% | 109% | 99.3% | 108% | 123% | 105% | 99.7% | 94.6% | 115% | 88.6% | 107% | 105% | 102% | 106% | 96.2% | 109% | 107% | 107% | 98.3% | Growth percentage (T-47D): 94.7%; Growth percentage (SR): 88.9%; activity at 10 µM (MCF7): 93.3%; activity at 10 µM (RPMI-8226): 106%; activity at 10 µM (HCT-116): 103%; activity at 10 µM (HL-60(TB)): 101%
COc1cccc(/C=C/C(=O)c2sc(SCC(=O)N3CCN(c4cc5c(cc4F)c(=O)c(C(=O)O)cn5C4CC4)CC3)nc2C)c1OC [Compound 4k, (E)-1-Cyclopropyl-7-(4-(2-((5-(3-(2,3-dimethoxyphenyl)acryloyl)-4-methylthiazol-2-yl)thio)acetyl)piperazin-1-yl)-6-fluoro-4-oxo-1,4-dihydroquinoline-3-carboxylic Acid] | 102% | 102% | 75.1% | 86.3% | 82.6% | 90.7% | 106% | 80.4% | 87.6% | 76.7% | 96.9% | 103% | 77.9% | 87.9% | 73.1% | 87.5% | 112% | 48.5% | 93.5% | -20.2% | IC50 (RPMI-8226; RPMI-8226, RPMI-8226): 340 nM; Growth percentage (MALME-3M): 115.2%; Growth percentage (IGROV1): 101.3%; IC50 (HCT-116; colon HCT-116): 340 nM; Growth percentage (NCI-H322M): 114.8%; IC50 (HL-60(TB); HL-60, leukemia HL-60): 2950 nM
